Reference: patent publication US10183011B2, “Anti-depression compounds” (Board of Regents of the University of Texas System, priority 2009, dated 2019)
Entries after “also recorded” stand apart in the source; their conditions may differ.

Key:
[1] = tested on: hippocampal neurogenesis; assay: Neurogenic efficacy of orally administered compound, dose response; format: in vivo, mouse; conditions: for pro-neurogenic or neuroprotective efficacy, oral: daily oral gavage for 7 days
From the text: FIG. 7: Neurogenic efficacy of orally administered Example 45 Compound was dose-related. […] Results shown are the average obtained from analysis of 5 adult wild type male mice at each dose.
Pharmacokinetic analysis of Example 45 Compound in plasma and whole brain tissue was undertaken after single IV, IP and oral gavage administrations. […] These favorable pharmacological properties facilitated a dose response experiment wherein daily oral administration of Example 45 Compound to adult mice was monitored for both brain levels of the chemical and pro-neurogenic efficacy (FIG. 7).

[2] = tested on: newborn neurons in the dentate gyrus; assay: BrdU pulse-chase and doublecortin staining with oral dosing for 30 days; format: in vivo, mouse (C57/B6)
Description: FIG. 10A and FIG. 10B: Example 45 Compound enhances the survival of newborn neurons in the dentate gyrus. […] (FIG. 10B) Example 45 Compound enhances hippocampal neurogenesis by promoting survival of newborn neurons. Three month old wild type C57/B6 male mice were exposed to orally-delivered Example 45 Compound or vehicle for 30 days (n=5 animals/group), administered a single pulse of BrdU via IP injection (150 mg/kg), and then sacrificed 1 hour, 1 day, 5 days or 30 days later for immunohistochemical detection of BrdU incorporation into cells localized in the subgranular layer of the dentate gyrus. […] In this longer-term trial, BrdU+ cells were observed both in the SGZ and the granular layer of the dentate gyrus.
The nature of the cells produced in the subgranular zone of the dentate gyrus was investigated when Example 45 Compound was administered as follows. Animals were exposed to oral administration of Example 45 Compound for 30 days. Brain tissue was then prepared for immunohistochemical staining with an antibody to doublecortin (DCX), a microtubule-associated protein that serves as a marker of neurogenesis in the dentate gyrus by virtue of transient expression in newly formed neurons, but not glial cells, between the timing of their birth and final maturation (Brown et al., 2003).
Example 45 Compound-mediated neurogenesis was next investigated to see whether it was attributable to increased cell proliferation or protection of newborn cells from cell death during the time between their birth and eventual incorporation into the granular layer of the dentate gyrus. This was accomplished by comparing the ability of Example 45 Compound to enhance either short- or long-term increases in the incorporation of BrdU in the dentate gyrus (FIG. 10B). Animals exposed to orally-delivered Example 45 Compound or vehicle for 30 days were administered a single pulse of BrdU via IP injection. Short-term effects on neuron birth were monitored by sacrificing animals one hour post-BrdU injection, followed by fixation of the tissue, sectioning and immunohistochemical detection of BrdU incorporation into cells localized in the subgranular layer of the dentate gyrus. […] It is hypothesized that these cells represent mature neurons that have migrated into the granular layer, completed the differentiation process, and incorporated themselves into the dentate gyrus as properly wired neurons. Observations supportive of this interpretation will be presented in a subsequent section of this document. In summary, these experiments give evidence that Example 45 Compound enhances the formation of neurons in the mature hippocampus, and that its mode of action would appear to take place at some point subsequent to their birth.

[3] = tested on: hippocampal neurogenesis in the DG; assay: Comparison of P7C3 compounds and antidepressant drugs: DG BrdU labeling after i.c.v. infusion; format: in vivo, mouse; conditions: 10 μM i.c.v. for 7 days
From the text: The neuroprotective efficacies of both P7C3 and P7C3-A20 were next compared to currently marketed antidepressant medications, using screening conditions identical to those by which P7C3 was originally discovered. This experiment was based on the antidepressant actions of P7C3 and P7C3-A20 characterized here, and the dependence on hippocampal neurogenesis for behavioral efficacy of some marketed antidepressant medications in mice.
Proneurogenic efficacies in the DG of P7C3 and P7C3A20 were compared to those of vehicle (artificial cerebrospinal fluid) and several marketed antidepressant compounds (Sigma-Aldrich, St. Louis, Mo.) according to established methods. In brief, mice were housed individually in cages without running wheels or any form of environmental enrichment, in order to create an environment predicted to have as low of a baseline level of hippocampal neurogenesis as possible. Compounds (10 μM, i.c.v.) were administered for 7 days via subcutaneously implanted Alzet osmotic minipumps connected to a cannula directed into the left lateral ventricle, with implantation day designated as day 0. Starting on day 1, mice also received daily injections of BrdU (50 mg/kg, i.p.) at 9 am daily, for 6 days. Twenty four hours after the sixth BrdU injection, mice were transcardially perfused as described above.

[4] = tested on: Ghsr-null and wild-type mice; assay: Caloric restriction: DG apoptosis (AC3) and forced swim test; format: in vivo, mouse
From the text: FIG. 42. Effects of P7C3 on caloric restriction-induced DG cell survival and antidepressant-like behavior, as measured by FST. (a) Protocol schematic. (b, c) AC3-immunoreactive cell counts in the DG of calorie-restricted and ad libitum-fed mice treated with P7C3 vs. vehicle. (d, e) FST immobility time. Group sizes indicated. (f-k) Representative photomicrograph images of AC3-immunolabeled ventral DG sections. (l-p) Magnified images of AC3-immunoreactive cells. Scale bar in (k; 150 μm) pertains to (f-k), in (p; 25 μm) pertains to (l-p). *P<0.05, **P<0.01, as compared to respective ad libitum-fed, vehicle-treated control group. ^#P<0.05, comparing compound treatment.
Prolonged caloric restriction in wild-type mice elicits an antidepressant-like response in the FST (decreased immobility), whereas this effect is not observed in Ghsr-null mice. To investigate whether this might be related to differences in apoptosis in the DG, similar to that observed above following CSDS, Ghsr-null and wild-type littermates were exposed to ad libitum food access vs. 60% caloric restriction for 10 days. Five days prior to this exposure and throughout the 10-day feeding period, mice received either P7C3 or vehicle. On Day 16, FST performance was assessed, followed by sacrifice of the animals for quantification of AC3+ cells in the DG (FIG. 42, panel a).
The 60% calorie restriction protocol was performed as previously (M. Lutter et al., The orexigenic hormone ghrelin defends against depressive symptoms of chronic stress. Nat Neurosci 11, 752 (2008)). Mice received twice-daily injections of either P7C3 (20 mg/kg/d in divided doses) or vehicle 5 days prior to and during 10 days of calorie restriction or ad-lib feeding, replicating the injection protocol used for the CSDS studies. On Day 16, the forced swim test was performed for each mouse as done previously.

[5] = caloric-restricted Ghsr-null mice
[6] = caloric-restricted wild-type mice

Which “oral dose giving maximal pro-neurogenic efficacy” value ([1]; daily oral administration to adult mice) does the source give for `OC(CNc1ccccc1)Cn1c2ccc(Br)cc2c2cc(Br)ccc21` (stereo not drawn) [Example 45 Compound] here?
Its value is at least 5 mg/kg.

And the “pro-neurogenic or neuroprotective efficacy, oral” value ([1]; doses 5 to 40 mg/kg)?
Its value is “roughly double that of vehicle control”.

What about the “pro-neurogenic or neuroprotective efficacy, oral” value ([1]; doses below 1.0 mg/kg) of the same compound?
The value was “no greater than vehicle control”.

And the “doublecortin (DCX) staining of newborn neurons” value ([2]; 20 mg/kg daily for 30 days by oral gavage)?
Its value is “increased dramatically; also recorded: substantially increased”.

What about the “increase in BrdU+ cells compared to vehicle” value ([2]; 5 days after BrdU pulse) of the same compound?
The value was 25%.

And the “increase in abundance of BrdU+ cells in the dentate gyrus relative to vehicle” value ([2]; daily oral dose for 30 days starting 24 hours after BrdU pulse)?
The value was 5 fold.

And the “BrdU+ cells versus vehicle, short term” value ([2]; oral for 30 days, 1 hour or 1 day after BrdU pulse)?
The value was “did not lead to an elevation in the level of BrdU-positive cells relative to vehicle; also recorded: No significant differences”.

For `OC(CNc1ccccc1)Cn1c2ccc(Br)cc2c2cc(Br)ccc21` (stereo not drawn) [Example P7C3], which “increase of DG neurogenesis (BrdU labeling) over vehicle” value [3] is on record?
Its value is “about 100%”.

And the “AC3+ cells in the DG” value [4, 5]?
Its value is “blocked the increase in apoptosis observed after caloric restriction”.

And the FST immobility [4, 5]?
Its FST immobility is “significantly decrease immobility”.

And the “AC3+ cells in the DG” value [4, 6]?
The value was “did not further reduce the number of AC3+ cells”.

What about the FST immobility [4, 6] of the same compound?
The FST immobility was “had no further effect on reducing immobility”.
